{"source": "paper PMC10619143", "about": "“Development of a covalent cereblon-based PROTAC employing a fluorosulfate warhead” (RSC Chemical Biology, 2023)", "target": "T1, cereblon (CRBN) (Homo sapiens, UniProt Q96SW2)", "T1 construct": "CRBN-DDB1ΔB complex; with DDB1ΔB", "T1 sequence (Q16531 2-1140)": "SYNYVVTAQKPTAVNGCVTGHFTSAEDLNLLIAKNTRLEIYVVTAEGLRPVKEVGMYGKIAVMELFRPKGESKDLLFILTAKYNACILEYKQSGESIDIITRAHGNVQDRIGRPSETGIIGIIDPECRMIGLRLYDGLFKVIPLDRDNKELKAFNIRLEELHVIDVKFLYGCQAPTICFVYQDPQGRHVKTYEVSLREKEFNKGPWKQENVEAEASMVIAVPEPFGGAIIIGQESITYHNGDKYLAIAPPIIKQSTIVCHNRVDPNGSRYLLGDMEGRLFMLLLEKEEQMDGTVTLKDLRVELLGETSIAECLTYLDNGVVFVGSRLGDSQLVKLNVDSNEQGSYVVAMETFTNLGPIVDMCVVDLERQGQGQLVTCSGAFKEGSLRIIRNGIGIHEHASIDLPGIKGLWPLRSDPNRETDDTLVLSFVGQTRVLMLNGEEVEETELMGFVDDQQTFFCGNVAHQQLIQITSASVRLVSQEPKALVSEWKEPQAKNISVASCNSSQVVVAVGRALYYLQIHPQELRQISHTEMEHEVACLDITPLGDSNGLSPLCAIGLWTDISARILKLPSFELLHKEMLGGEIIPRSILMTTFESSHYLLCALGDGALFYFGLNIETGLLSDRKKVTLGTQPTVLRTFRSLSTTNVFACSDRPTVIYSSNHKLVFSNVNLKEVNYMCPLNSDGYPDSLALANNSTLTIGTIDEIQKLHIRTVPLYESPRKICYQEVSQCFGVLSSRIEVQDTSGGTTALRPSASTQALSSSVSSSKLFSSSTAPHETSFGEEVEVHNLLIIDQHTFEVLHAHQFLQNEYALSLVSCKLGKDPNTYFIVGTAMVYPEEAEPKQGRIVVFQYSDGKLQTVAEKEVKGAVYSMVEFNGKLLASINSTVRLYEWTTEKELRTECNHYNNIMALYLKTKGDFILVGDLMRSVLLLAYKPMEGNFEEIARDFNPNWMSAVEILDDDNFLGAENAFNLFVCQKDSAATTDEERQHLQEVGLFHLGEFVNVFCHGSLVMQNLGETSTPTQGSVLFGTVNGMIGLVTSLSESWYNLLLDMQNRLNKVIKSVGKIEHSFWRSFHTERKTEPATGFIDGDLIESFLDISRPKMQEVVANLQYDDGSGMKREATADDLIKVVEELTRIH", "T1 sequence (Q96SW2 whole entry)": "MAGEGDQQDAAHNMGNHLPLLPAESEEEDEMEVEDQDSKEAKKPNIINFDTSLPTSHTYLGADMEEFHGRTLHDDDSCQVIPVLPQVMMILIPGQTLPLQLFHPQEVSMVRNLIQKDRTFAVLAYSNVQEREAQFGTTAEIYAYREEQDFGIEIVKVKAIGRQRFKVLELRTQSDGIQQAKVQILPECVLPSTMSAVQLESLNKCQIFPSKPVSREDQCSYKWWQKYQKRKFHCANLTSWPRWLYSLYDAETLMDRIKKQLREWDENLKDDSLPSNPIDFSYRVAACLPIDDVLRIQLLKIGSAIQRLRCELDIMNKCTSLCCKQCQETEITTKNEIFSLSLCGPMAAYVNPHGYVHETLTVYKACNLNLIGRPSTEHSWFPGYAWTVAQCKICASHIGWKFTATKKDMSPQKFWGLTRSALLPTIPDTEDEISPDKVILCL", "test": "intact protein MS covalent labelling and MS/MS site mapping (also cellular NanoBRET IC50 […] at […] h)", "assay_type": "binding"}
{"smiles": "Cc1sc2c(c1C)C(c1ccc(Cl)cc1)=N[C@@H](CC(=O)Nc1ccc(OCCOCCOCCOCCNc3cc(OS(=O)(=O)F)cc4c3C(=O)N(C3CCC(=O)NC3=O)C4=O)cc1)c1nnc(C)n1-2", "note": "(stereo partly shown) [FS-ARV-825]", "values": [{"measurement": "% labelled (10 μM, 24 h)", "value": "~ 50 % labelled (10 μM, 24 h)"}]}
